From PMC11583597, “Brain uptake pharmacokinetics of albiglutide, dulaglutide, tirzepatide, and DA5-CH in the search for new treatments of Alzheimer’s and Parkinson’s diseases” (Tissue Barriers, 2023)

Experiments:
[1] = Octanol/buffer partition coefficient (lipid solubility); type: physicochemical; conditions: pH 7.5
Description: We measured the lipid solubility of the IRAs, using octanol and PB. Briefly, 1 × 10^5 counts per minute (cpm) of each ^125I/^14C-IRA were added to triplicate tubes containing equal volumes PB and octanol (Sigma-Aldrich). This solution was vigorously mixed for 1 min and centrifuged at 5500 ×g for 10 min to separate the two phases. Aliquots of 100 μl were taken in duplicate from each phase, and total radioactivity was counted in a gamma counter (Wizard2, Perkin-Elmer) or beta counter (TriCarb 3110TR, Perkin-Elmer). The ratio of the cpm in the octanol phase to the cpm in the buffer phase equates to the mean partition coefficient (Pcoeff) and indicates lipophilicity. The log value for the coefficient can be either greater than unity, indicative of a lipophilic compound, or less than unity, indicative of a hydrophilic compound.

[2] = In vivo stability of 125I/14C-IRAs in brain (acid precipitation); design: species or system male CD-1 mice; conditions: mouse, iv
Description: (§1) We measured the stability of the radiolabeled IRAs in brain and blood. Following anesthetization, arterial blood and whole brain were taken at two time points (10 or 60 min) after iv injection of 3 × 10^5 cpm-1×10^6 cpm of ^125I/^14C-IRA in 0.2 ml of BSA/LR. The blood samples were allowed to clot, centrifuged at 3200 ×g for 10 min, and 50 μl of the separated serum was added to 250 μl of BSA-LR. Samples were combined with equal volume 30% TCA (300 μl), mixed, and then centrifuged for 10 min at 5400 ×g. Brains were homogenized in 800 μl of BSA-LR with a bead beater for 30 sec at 4800 rpm twice. Following centrifugation at 5400 ×g for 15 min, a portion of the resulting supernatant was added to an equal volume of 30% TCA, mixed, and then centrifuged at 5400 ×g for 10 min. The radioactivity in the resulting supernatant and pellet (Sup and Pel fractions) for serum and brain was calculated separately, and the percent of radioactivity in the precipitate was calculated using the following equation:(1) %AcidPrecip=100×Pel/Sup+Pel
(§2) To correct for degradation that might have occurred during the processing, ^125I/^14C-IRA was added to non-radioactive arterial whole blood or to whole brain and processed as above. The biological samples were corrected for degradation during processing by dividing their values by those for processing control (Pcon) values and multiplying by 100. This can sometimes result in a value greater than 100%.
(§3) Immediately after counting the radioactivity, the blood and brains from the 10 min and 6 h time points were processed as described in Section 2.5 for in vivo stability. For further comparison, data from the 1 h time point were taken from the original pharmacokinetic uptake study. The ^125I-IRA brain % acid precipitation (%AP) was divided by the ^125I-IRA serum %AP at each time point to calculate the %AP B/S ratio. This value was multiplied by the B/S ratio for each ^125I-IRA to correct for degradation over the 10 min, 1 h, or 6 h time periods. Corrected AP B/S ratios were then corrected for vascular space by subtracting the ^99mTc-Alb B/S ratio within each mouse for the 10 min and 6 h time points (AP corrected delta B/S ratio). For the 1 h time point, the average ^99mTc-Alb B/S ratio (10.03 μl/g) at 10 min across all ^125I-IRAs was used for correction. The AP corrected delta B/S ratio for each ^125I-IRA was then multiplied by the %Inj/ml within each mouse to calculate the AP corrected delta %Inj/g.

[3] = human, in vivo; cited from earlier work
[4] = design: species or system male CD-1 mice; conditions: mouse, in vivo, iv
Description: (§4) Following anesthetization, the jugular vein and right carotid artery were exposed. Mice were given a jugular vein injection of 0.2 ml BSA-LR containing 3 × 10^5 cpm-1×10^6 cpm of an ^125I/^14C-labeled IRA and 5 × 10^5 cpm of ^99mTc-Alb. Blood samples were collected from the carotid artery at various time points from 1 to 60 min after iv injection (see Figure 1). Mice were then decapitated, and their brains were removed and weighed. After clotting, the arterial blood was centrifuged at 3200 ×g for 10 min. Levels of radioactivity in serum (50 μl) and brain were measured in a gamma counter for ^125I and ^99mTc for 3 min. After ^99mTc decay, ^14C-DA5-CH samples were solubilized with Solvable (Sigma), transferred to scintillation vials containing Ecoscint (National Diagnostics) and ^14C was measured in a beta counter. Sample injection checks were taken throughout the course of the study to calculate the mean injected cpm/mouse. To determine the rate of ^125I/^14C-IRA clearance from the serum, the results were expressed as the percentage of an injected dose in each ml of serum (%Inj/ml), which was calculated by dividing the cpm in a ml of serum (cpm/ml serum) by the cpm injected into the mouse (cpm/Inj):
(2) %Inj/ml=100×cpm/mlserum/meancpm/Inj
The log(%Inj/ml) was plotted against time to calculate the rate of clearance from the serum. To calculate the half-time clearance in minutes, the inverse slope […] of the curve for each IRA was multiplied by 0.301 (log10[2]). The blood and brain cpm data were used for the measurement of brain influx and initial volume of distribution in brain as described in Section 2.7.

[5] = Brain influx and initial volume of distribution (multiple-time regression analysis); design: species or system male CD-1 mice; conditions: mouse, in vivo, iv
Description: as §4
To calculate the blood-to-brain unidirectional influx constant (Ki), multiple-time regression analysis was used as first described by Patlak, Blasberg, and Fenstermacher.[67],[68] The brain/serum (B/S) ratios (μl/g) of the ^125I/^14C-IRA in each gram of brain were calculated from the data in Section 2.6 and plotted against their respective exposure times as previously applied by Rhea et al. 2018.[69] Exposure time differs from clock time in that exposure time corrects for clearance of the ^125I/^14C-IRA from blood and thus, better represents the amount of ^125I/^14C-IRA available for BBB transport at any given time. Delta B/S ratios were calculated by subtracting the vascular space as measured by the B/S ratio for ^99mTc-Alb from the B/S ratio for the respective ^125I/^14C-IRA. Thus, delta B/S ratios represent material that has been taken up by or has crossed the BBB. The slope of the linear portion of the relation between delta B/S ratios and exposure time defines Ki (μl/g-min) and is reported with its error term. This represents Model 1 for DA5-CH. The y-intercept of this linear portion of the relation defines Vi, (μl/g), the initial volume of distribution in brain at t = 0, which is the functional volume per unit brain mass of a soluble compound that exchanges rapidly and reversibly with plasma.[68] Vi consists of the vascular space (Vv) and any residual space after accounting for Vv and usually represents vascular binding (Vr). Since we correct each ^125I/^14C-IRA delta B/S for vascular space, our y-intercept values likely represent vascular binding. For DA5-CH, there appeared to be rapid, early transport that would indicate a Vr equal to 0. Therefore, using Vr equal to 0, we calculated an estimate of this new Ki and refer to it throughout the manuscript as Model 2.

[6] = In vivo stability of 125I/14C-IRAs in blood/serum (acid precipitation); design: species or system male CD-1 mice; conditions: mouse, iv
Description: as §1, §2, §3

## CC[C@H](C)[C@H](NC(=O)[C@H](CC(C)C)NC(=O)[C@H](Cc1c[nH]c2ccccc12)NC(=O)[C@H](CCC(N)=O)NC(=O)[C@@H](NC(=O)[C@H](Cc1ccccc1)NC(=O)[C@H](C)NC(=O)[C@H](CCCCNC(=O)COCCOCCNC(=O)COCCOCCNC(=O)CC[C@H](NC(=O)CCCCCCCCCCCCCCCCCCC(=O)O)C(=O)O)NC(=O)[C@H](CCC(N)=O)NC(=O)[C@H](C)NC(=O)[C@@H](NC(=O)[C@H](CCCCN)NC(=O)[C@H](CC(=O)O)NC(=O)[C@H](CC(C)C)NC(=O)C(C)(C)NC(=O)[C@@H](NC(=O)[C@H](CO)NC(=O)[C@H](Cc1ccc(O)cc1)NC(=O)[C@H](CC(=O)O)NC(=O)[C@H](CO)NC(=O)[C@@H](NC(=O)[C@H](Cc1ccccc1)NC(=O)[C@@H](NC(=O)CNC(=O)[C@H](CCC(=O)O)NC(=O)C(C)(C)NC(=O)[C@@H](N)Cc1ccc(O)cc1)[C@@H](C)O)[C@@H](C)O)[C@@H](C)CC)[C@@H](C)CC)C(C)C)C(=O)N[C@@H](C)C(=O)NCC(=O)NCC(=O)N1CCC[C@H]1C(=O)N[C@@H](CO)C(=O)N[C@@H](CO)C(=O)NCC(=O)N[C@@H](C)C(=O)N1CCC[C@H]1C(=O)N1CCC[C@H]1C(=O)N1CCC[C@H]1C(=O)N[C@@H](CO)C(N)=O [Tirzepatide]
[1]
  Lipid Solubility Partition Coefficient: 0.1318 ± 0.0126
  Log Partition Coefficient (Log P): -0.884 ± 0.0405
[2]
  Percentage of labeled IRA intact, Whole Brain, 10 min: 100.7 ± 0.0%
  Percentage of labeled IRA intact, Whole Brain, 60 min: 99.73 ± 0.6%
[3]
  half-lives in human serum: 111 to 124 h
[4]
  Half-Time Serum Clearance (t1/2): 30.62 min
[5]
  Brain influx within 1 h of iv injection (detection): did not detect brain influx
[6]
  Percentage of labeled IRA intact, Serum, 10 min: 100.5 ± 0.0%
  Percentage of labeled IRA intact, Serum, 60 min: 99.65 ± 0.1%
